Test results published in PubChem BioAssay (NCI).
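Following 48 hours of exposure in 96-well plates, responses at five concentrations were used to interpolate endpoints linearly. TGI marks complete inhibition of growth.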

Key:
Experiment in all cases: inhibition of tumour cell growth, NCI panel, 48 h
OVCAR-5 ovarian = test system: OVCAR-5 ovarian
HCT-116 colon = test system: HCT-116 colon
SF-268 CNS = test system: SF-268 CNS
K-562 leukemia = test system: K-562 leukemia
SNB-75 CNS = test system: SNB-75 CNS
PC-3 prostate = test system: PC-3 prostate
OVCAR-8 ovarian = test system: OVCAR-8 ovarian
UO-31 renal = test system: UO-31 renal
CAKI-1 renal = test system: CAKI-1 renal
NCI-H522 lung = test system: NCI-H522 lung
HS 578T breast = test system: HS 578T breast
T-47D breast = test system: T-47D breast
LOX IMVI melanoma = test system: LOX IMVI melanoma
BT-549 breast = test system: BT-549 breast
MCF7 breast = test system: MCF7 breast
UACC-62 melanoma = test system: UACC-62 melanoma
A549 NSCLC = test system: A549 NSCLC
OVCAR-4 ovarian = test system: OVCAR-4 ovarian
HL-60(TB) leukemia = test system: HL-60(TB) leukemia
SNB-19 CNS = test system: SNB-19 CNS
RXF 393 renal = test system: RXF 393 renal
OVCAR-3 ovarian = test system: OVCAR-3 ovarian
SF-295 CNS = test system: SF-295 CNS
NCI-H23 lung = test system: NCI-H23 lung
SK-MEL-2 melanoma = test system: SK-MEL-2 melanoma
NCI/ADR-RES ovarian = test system: NCI/ADR-RES ovarian
SK-OV-3 ovarian = test system: SK-OV-3 ovarian
NCI-H460 lung = test system: NCI-H460 lung
786-0 renal = test system: 786-0 renal
COLO 205 colon = test system: COLO 205 colon
TK-10 renal = test system: TK-10 renal
DU-145 prostate = test system: DU-145 prostate
NCI-H226 lung = test system: NCI-H226 lung
HCT-15 colon = test system: HCT-15 colon
MDA-MB-231 breast = test system: MDA-MB-231 breast
EKVX NSCLC = test system: EKVX NSCLC
CCRF-CEM leukemia = test system: CCRF-CEM leukemia
MALME-3M melanoma = test system: MALME-3M melanoma
MDA-N = test system: MDA-N
UACC-257 melanoma = test system: UACC-257 melanoma
M14 melanoma = test system: M14 melanoma
SF-539 CNS = test system: SF-539 CNS
HOP-62 NSCLC = test system: HOP-62 NSCLC
U251 CNS = test system: U251 CNS
SR leukemia = test system: SR leukemia
HCC-2998 colon = test system: HCC-2998 colon
SW-620 colon = test system: SW-620 colon
A498 renal = test system: A498 renal
MOLT-4 leukemia = test system: MOLT-4 leukemia
SK-MEL-5 melanoma = test system: SK-MEL-5 melanoma
KM12 colon = test system: KM12 colon
SN12C renal = test system: SN12C renal
HT29 colon = test system: HT29 colon
MDA-MB-435 = test system: MDA-MB-435
IGROV1 ovarian = test system: IGROV1 ovarian
RPMI-8226 leukemia = test system: RPMI-8226 leukemia
SK-MEL-28 melanoma = test system: SK-MEL-28 melanoma
ACHN renal = test system: ACHN renal
HOP-92 NSCLC = test system: HOP-92 NSCLC

## C[Si](C)(C)C1=C([Si](C)(C)C)C(Cl)(Cl)C1=O
OVCAR-5 ovarian
  TGI: 20 µM
HCT-116 colon
  TGI: 7.02 µM
SF-268 CNS
  TGI: 21.1 µM
K-562 leukemia
  TGI: 2.88 µM
SNB-75 CNS
  TGI: 24.9 µM
PC-3 prostate
  TGI: 12.9 µM
OVCAR-8 ovarian
  TGI: 9.78 µM
UO-31 renal
  TGI: 8.45 µM
CAKI-1 renal
  TGI: 7.14 µM
NCI-H522 lung
  TGI: 3.6 µM
HS 578T breast
  TGI: 55.7 µM
T-47D breast
  TGI: 6.35 µM
LOX IMVI melanoma
  TGI: 3.51 µM
BT-549 breast
  TGI: 16.1 µM
MCF7 breast
  TGI: 23.4 µM
UACC-62 melanoma
  TGI: 7.69 µM
A549 NSCLC
  TGI: 49.7 µM
OVCAR-4 ovarian
  TGI: 12.5 µM
HL-60(TB) leukemia
  TGI: 1.53 µM
SNB-19 CNS
  TGI: 36.5 µM
RXF 393 renal
  TGI: 5.33 µM
OVCAR-3 ovarian
  TGI: 8.15 µM
SF-295 CNS
  TGI: 22.3 µM
NCI-H23 lung
  TGI: 18.4 µM
SK-MEL-2 melanoma
  TGI: 34.6 µM
NCI/ADR-RES ovarian
  TGI: 27.1 µM
SK-OV-3 ovarian
  TGI: 49.3 µM
NCI-H460 lung
  TGI: 32.2 µM
786-0 renal
  TGI: 10 µM
COLO 205 colon
  TGI: 4.87 µM
TK-10 renal
  TGI: 5.27 µM
DU-145 prostate
  TGI: 23.3 µM
NCI-H226 lung
  TGI: 8.86 µM
HCT-15 colon
  TGI: 4.05 µM
MDA-MB-231 breast
  TGI: 7.85 µM
EKVX NSCLC
  TGI: 16.2 µM
CCRF-CEM leukemia
  TGI: 1.42 µM
MALME-3M melanoma
  TGI: 4.22 µM
MDA-N
  TGI: 5.39 µM
UACC-257 melanoma
  TGI: 6.95 µM
M14 melanoma
  TGI: 9.24 µM
SF-539 CNS
  TGI: 12.7 µM
HOP-62 NSCLC
  TGI: 41.4 µM
U251 CNS
  TGI: 11.3 µM
SR leukemia
  TGI: 5.46 µM
HCC-2998 colon
  TGI: 17.6 µM
SW-620 colon
  TGI: 13.2 µM
A498 renal
  TGI: 29.8 µM
MOLT-4 leukemia
  TGI: 3.45 µM
SK-MEL-5 melanoma
  TGI: 5.89 µM
KM12 colon
  TGI: 18.9 µM
SN12C renal
  TGI: 15.8 µM
HT29 colon
  TGI: 13.7 µM
MDA-MB-435
  TGI: 7.22 µM
IGROV1 ovarian
  TGI: 16.1 µM
RPMI-8226 leukemia
  TGI: 3.99 µM
SK-MEL-28 melanoma
  TGI: 9.29 µM
ACHN renal
  TGI: 4.9 µM
HOP-92 NSCLC
  TGI: 5.55 µM

## C/C1=C\C=C(\C(C)C)CC/C(C(=O)O)=C\CC/C(C)=C/CC1
OVCAR-5 ovarian
  TGI: 78 µM
HCT-116 colon
  TGI: 29.8 µM
SF-268 CNS
  TGI: > 100 µM
K-562 leukemia
  TGI: 74.8 µM
SNB-75 CNS
  TGI: > 100 µM
PC-3 prostate
  TGI: 35.2 µM
OVCAR-8 ovarian
  TGI: > 100 µM
UO-31 renal
  TGI: 53.8 µM
CAKI-1 renal
  TGI: 88.3 µM
NCI-H522 lung
  TGI: 39.5 µM
HS 578T breast
  TGI: > 100 µM
T-47D breast
  TGI: > 100 µM
LOX IMVI melanoma
  TGI: 49.5 µM
BT-549 breast
  TGI: 79.9 µM
MCF7 breast
  TGI: 34.8 µM
UACC-62 melanoma
  TGI: 25.8 µM
A549 NSCLC
  TGI: > 100 µM
OVCAR-4 ovarian
  TGI: > 100 µM
HL-60(TB) leukemia
  TGI: 56.8 µM
SNB-19 CNS
  TGI: 51.2 µM
RXF 393 renal
  TGI: 41.4 µM
OVCAR-3 ovarian
  TGI: 31.4 µM
SF-295 CNS
  TGI: 47.9 µM
NCI-H23 lung
  TGI: 42.7 µM
SK-MEL-2 melanoma
  TGI: 32.8 µM
NCI/ADR-RES ovarian
  TGI: 76.2 µM
SK-OV-3 ovarian
  TGI: 64 µM
NCI-H460 lung
  TGI: 34.5 µM
786-0 renal
  TGI: 65.9 µM
COLO 205 colon
  TGI: 50.6 µM
TK-10 renal
  TGI: > 100 µM
DU-145 prostate
  TGI: > 100 µM
NCI-H226 lung
  TGI: 43.3 µM
HCT-15 colon
  TGI: 51.1 µM
MDA-MB-231 breast
  TGI: 39.2 µM
EKVX NSCLC
  TGI: 78.7 µM
CCRF-CEM leukemia
  TGI: 41.8 µM
MALME-3M melanoma
  TGI: 52.2 µM
MDA-N
  TGI: 82 µM
UACC-257 melanoma
  TGI: 56.1 µM
M14 melanoma
  TGI: 63.6 µM
SF-539 CNS
  TGI: 34.8 µM
HOP-62 NSCLC
  TGI: 48 µM
U251 CNS
  TGI: 30.5 µM
SR leukemia
  TGI: 38.6 µM
HCC-2998 colon
  TGI: 33.8 µM
SW-620 colon
  TGI: > 100 µM
A498 renal
  TGI: 34.1 µM
MOLT-4 leukemia
  TGI: 43.2 µM
SK-MEL-5 melanoma
  TGI: 34.7 µM
KM12 colon
  TGI: 41.8 µM
SN12C renal
  TGI: 45.9 µM
HT29 colon
  TGI: 99 µM
MDA-MB-435
  TGI: 56.4 µM
IGROV1 ovarian
  TGI: > 100 µM
RPMI-8226 leukemia
  TGI: 42.2 µM
SK-MEL-28 melanoma
  TGI: 56.3 µM
ACHN renal
  TGI: > 100 µM
HOP-92 NSCLC
  TGI: 40.5 µM
